Values quoted from earlier work as cited in patent US20120148652A1, “METHOD FOR INCORPORATING MEDICINE INTO A PLANT” (EARTH CHEMICAL CO., LTD., priority 2009, published 2012).

Conditions: 20° C., reference value

Compound	vapor pressure
CC1(C)[C@H](C=C(Cl)Cl)[C@H]1C(=O)OCc1c(F)c(F)cc(F)c1F [transfluthrin, Transfluthrin]	4.0×10^−6 hPa
CC(C)=CC1C(C(=O)OC(C#N)c2cccc(Oc3ccccc3)c2)C1(C)C (stereo not drawn) [d,d-T-cyphenothrin]	< 1.33×10^−7 hPa
